Read-outs that look alike come from different tables or passages of the source.
Assays:
NCI-H1650 = assay: Cell proliferation assay (CellTiter-Glo); assay type: cell-based, human; details: NCI-H1650 cells, 20 μM to 0.009 μM in serial 3-fold dilutions
Procedure: (§1) All cells were obtained from the cell bank of the American Type Culture Collection (ATCC) and cultured in the supplier's recommended media supplemented with 10% FBS. The cell panel screen was measured using the CellTiter-Glo assay (Promega, Madison, WI) following a standard protocol. Briefly, cancer cells were seeded in 96-well plates and cultured overnight at 37°C with or without 5% CO2 in an incubator. Each compound was dissolved with limited DMSO and diluted to a certain concentration with culture medium and then added to the corresponding well of the cell plate. The final concentration of compound was 20 μM. The control cells (without treatment) received the same amount of DMSO and were incubated under the same conditions. After 72 h cultivation, 100 μL of the CellTiter-Glo reagent was added directly to each well for 10-minute incubation. The plate was then read on a FlexStation 3 microplate luminometer (Molecular Devices, USA) to monitor the luminescence signal generated by the luciferase-catalyzed reaction of luciferin and ATP. The percent of growth inhibition was calculated using the following formula: (untreated cells − treated cells)/(untreated cells − background without cells) ∗ 100.
(§2) For proliferation assays, the CellTiter-Glo assay (Promega, Madison, WI) was used to evaluate the proliferation of cancer cells treated with test compounds as described above. Each compound was dissolved in limited DMSO and diluted to various concentrations with culture medium and then added to the corresponding wells. A dose-response curve was plotted, and the IC50 was calculated using XLfit software.

A549 = assay: Cell proliferation assay (CellTiter-Glo); assay type: cell-based; details: Homo sapiens, A549 cells, 72 h
Procedure: as §1, §2

CHP212 = assay: Cell proliferation assay (CellTiter-Glo); assay type: cell-based; details: Homo sapiens, CHP-212, CHP212 cells, 72 h
Procedure: as §1, §2

LnCap = assay: Cell proliferation assay (CellTiter-Glo); assay type: cell-based; details: Homo sapiens, LnCap cells, 72 h
Procedure: as §1, §2

NCI-H1573 = assay: Cell proliferation assay (CellTiter-Glo); assay type: cell-based; details: Homo sapiens, NCI-H1573 cells, 72 h
Procedure: as §1, §2

NCI-H1975 = assay: Cell proliferation assay (CellTiter-Glo); assay type: cell-based; details: Homo sapiens, NCI-H1975 cells, 72 h
Procedure: as §1, §2

NCI-H1993 = assay: Cell proliferation assay (CellTiter-Glo); assay type: cell-based; details: Homo sapiens, NCI-H1993 cells, 72 h
Procedure: as §1, §2

NCI-H838 = assay: Cell proliferation assay (CellTiter-Glo); assay type: cell-based; details: Homo sapiens, NCI-H838 cells, 72 h
Procedure: as §1, §2

SK-MEL-28 = assay: Cell proliferation assay (CellTiter-Glo); assay type: cell-based; details: Homo sapiens, SK-MEL-28 cells, 72 h
Procedure: as §1, §2

SW1353 = assay: Cell proliferation assay (CellTiter-Glo); assay type: cell-based; details: Homo sapiens, SW1353 cells, 72 h
Procedure: as §1, §2

SW48 = assay: Cell proliferation assay (CellTiter-Glo); assay type: cell-based; details: Homo sapiens, SW48 cells, 72 h
Procedure: as §1, §2

SW954 = assay: Cell proliferation assay (CellTiter-Glo); assay type: cell-based; details: Homo sapiens, SW 954, SW954 cells, 72 h
Procedure: as §1, §2

U118MG = assay: Cell proliferation assay (CellTiter-Glo); assay type: cell-based; details: Homo sapiens, U-118-MG, U118MG cells, 72 h
Procedure: as §1, §2

NCI-H1650 cells = assay: Apoptosis induction assay (Cell Death Detection ELISA); assay type: cell-based, human; details: for effect of Z-VAD cotreatment on compound-induced oligonucleosomal fragmentation: NCI-H1650 cells, Z-VAD 10 μmol/L; for NCI-H1650 cells that underwent rapid apoptosis: after 8 h
Procedure: Apoptosis induction assays were performed after 8 or 24 h incubation with compounds using the Cell Death Detection ELISA assay (Roche). Apoptosis induction is represented relative to DMSO-treated controls (set at 1.0). Error bars denote the SEM.

Bel-7402 = assay: Cell panel screen (CellTiter-Glo); assay type: cell-based, human; details: Homo sapiens, read-out: Percent Inhibition
Summary of the method: (§3)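 ATCC lines in supplier media with 10% FBS, seeded and cultured overnight at 37° C., then exposed to compound at 20 μM final for 72 h. CellTiter-Glo luminescence; % growth inhibition relative to DMSO-treated controls after subtracting cell-free background.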

CW-2 = assay: Cell panel screen (CellTiter-Glo); assay type: cell-based, human; details: Homo sapiens, read-out: Percent Inhibition
Summary of the method: as §3

Colo 205 = assay: Cell panel screen (CellTiter-Glo); assay type: cell-based, human; details: Homo sapiens, read-out: Percent Inhibition
Summary of the method: as §3

HCC1569 = assay: Cell panel screen (CellTiter-Glo); assay type: cell-based, human; details: Homo sapiens, read-out: Percent Inhibition
Summary of the method: as §3

HT-1197 = assay: Cell panel screen (CellTiter-Glo); assay type: cell-based, human; details: Homo sapiens, read-out: Percent Inhibition
Summary of the method: as §3

NCI-H1623 = assay: Cell panel screen (CellTiter-Glo); assay type: cell-based, human; details: Homo sapiens, read-out: Percent Inhibition
Summary of the method: as §3

NCI-H2405 = assay: Cell panel screen (CellTiter-Glo); assay type: cell-based, human; details: Homo sapiens, read-out: Percent Inhibition
Summary of the method: as §3

ZR-75-30 = assay: Cell panel screen (CellTiter-Glo); assay type: cell-based, human; details: Homo sapiens, read-out: Percent Inhibition
Summary of the method: as §3

[1] = Bel-7402 (Liver), 20 micromolar, 72 hrs
[2] = CW-2 (Colon), 20 micromolar, 72 hrs
[3] = Colo 205, 20 micromolar, 72 hrs
[4] = HCC1569 (Breast), 20 micromolar, 72 hrs
[5] = HT1197, HT-1197 (Urinary bladder), 20 micromolar, 72 hrs
[6] = NCI-H1623 (Lung), 20 micromolar, 72 hrs
[7] = NCI-H2405 (Lung), 20 micromolar, 72 hrs
[8] = ZR-75-30 (Breast), 20 micromolar, 72 hrs

| Structure (SMILES) | IC50 (NCI-H1650; Homo sapiens, NCI-H1650, 72 h) | IC50 (A549) | IC50 (CHP212) | IC50 (LnCap) | IC50 (NCI-H1573) | IC50 (NCI-H1975) | IC50 (NCI-H1993) | IC50 (NCI-H838) | IC50 (SK-MEL-28) | IC50 (SW1353) | IC50 (SW48) | IC50 (SW954) | IC50 (U118MG) | inhibition at 20 µM (Bel-7402; [1]) | inhibition at 20 µM (CW-2; [2]) | inhibition at 20 µM (Colo 205; [3]) | inhibition at 20 µM (HCC1569; [4]) | inhibition at 20 µM (HT-1197; [5]) | inhibition at 20 µM (NCI-H1623; [6]) | inhibition at 20 µM (NCI-H2405; [7]) | also measured |
| --- | --- | --- | --- | --- | --- | --- | --- | --- | --- | --- | --- | --- | --- | --- | --- | --- | --- | --- | --- | --- | --- |
| CC(C)=CCC[C@@]1(C)C=Cc2c(O)c3c(c(C/C=C(\C)CO)c2O1)O[C@]12C(=C[C@@H]4C[C@H]1C(C)(C)O[C@@]2(C/C=C(/C)C(=O)O)C4=O)C3=O [GB40, 35-hydroxyepigambogic acid] | < 1 µM | 2.45 ± 0.06 µM | 1.18 ± 0.05 µM | 0.79 ± 0.12 µM | 5.99 ± 0.19 µM | 0.96 ± 0.05 µM | 1.29 ± 0.05 µM | 1.68 ± 0.19 µM | 0.73 ± 0.21 µM | 0.83 ± 0.05 µM | 1.47 ± 0.1 µM | 1.02 ± 0.1 µM | 1.03 ± 0.15 µM | 99% | 99% | 99% | 99% | 99% | 99% | 99% | IC50 (NCI-H1650; 72 hr): 0.62 ± 0.03 µM; effect of Z-VAD cotreatment on compound-induced oligonucleosomal fragmentation (NCI-H1650 cells): completely suppressed; NCI-H1650 cells that underwent rapid apoptosis (NCI-H1650 cells): > 90%; inhibition at 20 µM (ZR-75-30; [8]): 99% |
| CC(C)=CCC/C(C)=C/Cc1c(O)c(CC=C(C)C)c2c(c1O)C(=O)C1=C[C@@H]3C[C@H]4C(C)(C)O[C@@](CC=C(C)C)(C3=O)[C@@]14O2 [GB32] | – | 2.88 ± 0.06 µM | 1.45 ± 0.08 µM | 1.8 ± 0.14 µM | 4.36 ± 0.15 µM | 1.58 ± 0.12 µM | 2.47 ± 0.11 µM | 3.15 ± 0.04 µM | 1.51 ± 0.07 µM | 1.41 ± 0.05 µM | 3.84 ± 0.09 µM | 2.43 ± 0.17 µM | 1.19 ± 0.07 µM | – | – | – | – | – | – | – | IC50 (NCI-H1650; Homo sapiens, 72 hr): 1.09 ± 0.15 µM; effect of Z-VAD cotreatment on compound-induced oligonucleosomal fragmentation (NCI-H1650 cells): completely suppressed; apoptosis induction (oligonucleosomal fragmentation) (NCI-H1650 cells; after 24 h): significant apoptosis; inhibition at 20 µM (Bel-7402; Bel-7402, 72 h): 99%; inhibition at 20 µM (CW-2; CW-2, 72 h): 99%; inhibition at 20 µM (Colo 205; COLO 205, 72 h): 99%; inhibition at 20 µM (HCC1569; HCC1569, 72 h): 99%; inhibition at 20 µM (HT-1197; HT1197, 72 h): 99%; inhibition at 20 µM (NCI-H1623; NCI-H1623, 72 h): 99%; inhibition at 20 µM (NCI-H2405; NCI-H2405, 72 h): 99%; inhibition at 20 µM (ZR-75-30; ZR-75-30, 72 h): 99% |
| CC(C)=CCC/C(C)=C/Cc1c(O)c(CC=C(C)C)c2c(c1O)C(=O)C1=C[C@@H]3C[C@H]4C(C)(C)O[C@@](C/C=C(\C)C(=O)O)(C3=O)[C@@]14O2 [GB63] | 1.43 ± 0.09 µM | 3.77 ± 0.06 µM | 3.51 ± 0.08 µM | 2.17 ± 0.21 µM | 7.92 ± 0.29 µM | 1.71 ± 0.22 µM | 2.15 ± 0.1 µM | 2.65 ± 0.2 µM | 1.75 ± 0.16 µM | 2.48 ± 0.11 µM | 4.02 ± 0.15 µM | 2.58 ± 0.16 µM | 3.05 ± 0.1 µM | 99% | 99% | 99% | 99% | 99% | 99% | 99% | inhibition at 20 µM (ZR-75-30; [8]): 99% |
| CC(C)=CCC[C@@]1(C)C=Cc2c(O)c3c(c(CCC(C)(C)O)c2O1)O[C@]12C(=C[C@@H]4C[C@H]1C(C)(C)O[C@@]2(C/C=C(/C)C(=O)O)C4=O)C3=O [GB39, 33-hydroxyepigambogic acid] | < 1 µM | 3.04 ± 0.1 µM | 1.2 ± 0.08 µM | 0.84 ± 0.08 µM | 6.08 ± 0.21 µM | 1.25 ± 0.14 µM | 1.03 ± 0.13 µM | 1.5 ± 0.07 µM | 0.82 ± 0.11 µM | 0.76 ± 0.03 µM | 1.44 ± 0.06 µM | 0.94 ± 0.04 µM | 1.15 ± 0.09 µM | 100% | 100% | 100% | 100% | 100% | 100% | 100% | IC50 (NCI-H1650; 72 hr): 0.95 ± 0.03 µM; effect of Z-VAD cotreatment on compound-induced oligonucleosomal fragmentation (NCI-H1650 cells): completely suppressed; NCI-H1650 cells that underwent rapid apoptosis (NCI-H1650 cells): > 90%; inhibition at 20 µM (ZR-75-30; [8]): 100% |
| CC(C)=CCC/C(C)=C/Cc1c(O)c(CC=C(C)C)c2c(c1O)C(=O)C1=C[C@@H]3C[C@H]4C(C)(C)O[C@@](C/C=C(\C)C=O)(C3=O)[C@@]14O2 [GB49] | 0.97 ± 0.04 µM | 3.46 ± 0.2 µM | 1.43 ± 0.03 µM | 1.91 ± 0.06 µM | 7.89 ± 0.14 µM | 1.69 ± 0.15 µM | 2.55 ± 0.14 µM | 2.72 ± 0.15 µM | 1.51 ± 0.12 µM | 1.29 ± 0.05 µM | 2.97 ± 0.06 µM | 1.88 ± 0.1 µM | 1.22 ± 0.05 µM | 98% | 99% | 100% | 99% | 96% | 99% | 99% | inhibition at 20 µM (ZR-75-30; [8]): 100% |

— article PMC4450297, “Screening Active Compounds from Garcinia Species Native to China Reveals Novel Compounds Targeting the STAT/JAK Signaling Pathway” (BioMed Research International, 2015)
